Data reported in publication PMC10218234, “Design, Synthesis and Antitumor Activity of 1H-indazole-3-amine Derivatives” (International Journal of Molecular Sciences, 2023).
Entries after “also recorded” stand apart in the source; their conditions may differ. Like-named read-outs stand apart in the source and are kept apart here.

Legend:
[1] = test system: K562 cells; assay: MTT anti-proliferative assay, K562; assay type: cell-based; settings: Homo sapiens
Method: (§1) The antiproliferative activity of the target indazole derivatives was evaluated against a panel of human cancer cell lines (human chronic myeloid leukemia cell lines K562; human lung cancer cell lines A549; human prostate cancer cell lines PC-3; human hepatoma cell lines HepG-2) in vitro, and human embryonic kidney cell lines HEK-293 were used to evaluate the cytotoxicity of a normal cell with high activity derivatives by MTT assay. Moreover, 5-fluorouracil (5-Fu), a broad-spectrum drug antitumor drug with therapeutic effects on various cancers, was used as a positive control.
(§2) Lung (A549), chronic myeloid leukemia (K562), prostate (PC3), and live (Hep-G2) cells were purchased from the Cell Bank of the Chinese Academy of Sciences (Kunming, China). A549, K562, and PC-3 cells were cultured in RPMI-1640 medium and the liver cells Hep-G2 were cultured in MEM medium. All mediums were supplemented with 10% FBS, 100 μg/mL penicillin and 100 μg/mL streptomycin. All cells were cultivated in a 5% CO2 incubator at 37 °C.
(§3) To investigate the anticancer activity of indazole derivatives, A549, K562, PC3, and Hep-G2 cells were treated with targets compounds respectively for 48 h in a range of concentrations (from 0.625 to 10 μM) and subjected to a proliferation assay using the MTT assay. Exponentially growing cells were seeded at a density of 5000 cells per well in 96-well plates containing 100 μL of fresh growth medium. After allowing the cells to attach for 24 h, target compounds were added. After incubation for 48 h, viable cells were stained with MTT (0.5 mg/mL) for 4 h, and the produced formazan crystals were dissolved with 150 µL of dimethyl sulfoxide. Absorbance was measured at 490 nm using an automated microplate reader (Tecan, Infinite M200 Pro, Männedorf, Switzerland). The relative cell viability was calculated according to the following equation: Cell viability%=experimental OD value/control OD value×100%Cell inhibition%=control OD value−experimental OD value/control OD value×100%
(§4) Cell inhibition%=control OD value−experimental OD value/control OD value×100%

[2] = test system: A549 cells; assay: MTT anti-proliferative assay, A549; assay type: cell-based; settings: Homo sapiens, read-out: IC50 ± SD, A549
Method: as §1, §2, §3, §4

[3] = test system: PC-3 cells; assay: MTT anti-proliferative assay, PC-3; assay type: cell-based; settings: Homo sapiens, PC-3, 48 h
Method: as §1, §2
as §3, with “Exponentially” for “To investigate the anticancer activity of indazole derivatives, A549, K562, PC3, and Hep-G2 cells were treated with targets compounds respectively for 48 h in a range of concentrations (from 0.625 to 10 μM) and subjected to a proliferation assay using the MTT assay. Exponentially”
as §4

[4] = test system: Hep-G2 cells; assay: MTT anti-proliferative assay, Hep-G2; assay type: cell-based; settings: Homo sapiens
Method: as §1, §2, §3, §4

[5] = MTT cytotoxicity to normal cells, HEK-293; assay type: cell-based, human; settings: human, HEK-293 cells (normal human embryonic kidney cells); normal cell HEK-293; MTT; read-out: IC50 ± SD, HEK-293
Method: as §1, §3, §4

[6] = test system: HEK-293 cells; assay: MTT cytotoxicity to normal cells, HEK-293; assay type: cell-based, human; settings: for Selectivity index (SI) for Hep-G2 cells: IC50 in HEK-293 divided by IC50 in Hep-G2; for Selectivity index (SI) for K562 cells: IC50 in HEK-293 divided by IC50 in K562
Method: as §1, §3, §4

[7] = test system: K562 cells; assay: Cell cycle analysis (PI staining, flow cytometry); assay type: cell-based, human; settings: 24 h
Method: To further explore the antitumor properties of 6o, the effect of 6o on cell cycle distribution was evaluated. PI staining was used to perform cell cycle analysis.
To analyze the cell cycle, a PI apoptosis detection kit (Solarbio, Wuhan, China) was utilized. After K562 cells were seeded in 6-well plates for 24 h, compound 6o (10, 12 and 14 μM) or positive control was added to the plates for another 24 h. Then, cells were washed three times with PBS, and fixed with 70% ethanol at 4°C for overnight. After fixed, cells were again washed with PBS and incubated at 37 °C with 100 μL RNase A for 30 min. After this, cells were incubated with 400 μL PI for 30 min at 4 °C. After staining, cells were subjected to Flow Cytometry using Cell Quest software (BD, SN: E34297502014) and the PI fluorescence was recorded in the FL2 channel. Data were analyzed using FlowJo V10.

[8] = test system: K562 cells; assay: Annexin V-FITC/PI cell apoptosis detection assay (flow cytometry); assay type: cell-based, human; settings: 48 h
Method: (§5) To quantify the effects of 6o on K562 cell apoptosis, K562 cells were treated with different concentrations of the compound 6o and followed by Annexin V-FITC/PI detection assay.
Activation of tumor cell apoptosis plays an important role in treatment cancer. To investigate whether apoptosis could underlie the anticancer activity of 6o, K562 cells were treated with 6o (0, 10, 12 or 14 μM) for 48 h and the percentage of apoptosis was determined by flow cytometry, Annexin V-FITC/PI Apoptosis Detection Kit (BD, Franklin Lakes, NJ, USA) was used. Cells (1 × 10^6/mL per well) were plated in 6-well culture plates and grown for 24 h. After treatment with compound 6o for 48 h, the collected cells were washed two times with ice-cold PBS, counted, and 100 μL of cell suspension with a density of 1 × 10^6 cells/mL was prepared, then incubated with 5 μL Annexin V-FITC and 5 μL Propidium iodide (PI) in the dark for 15 min. After 15 min of incubation and added 400 μL of 1 × binding buffer, and use Cell Quest software (BD, SN: E34297502014) to perform detection on Flow Cytometry (BD, Franklin Lakes, NJ, USA). Data were analyzed using FlowJo V10.

[9] = test system: Bax and Bcl-2 expression in K562 cells; assay: Western blotting of apoptosis-related proteins Bax and Bcl-2; assay type: cell-based, human; settings: K562, 48 h
Method: as §5
K562 cells were treated with compound 6o for 48 h, then, lysed in 1×RIPA lysis buffer (Solarbio) with proteinase (Solarbio) and phosphatase inhibitors (Solarbio) for 15 min on ice (proteinase: phosphatase inhibitors: 1 × RIPA lysis buffer = 1:1:100), scraped off from the plate and prepared cell lysates. These lysates were centrifuged at 1.2 × 10^4 rpm at 4 °C for 15 min to collect the supernatants and the protein concentration of each sample was quantified by the BCA protein assay kit (Beyotime, Shanghai, China). Protein was separated by SDS-PAGE and then transferred onto the PVDF membrane. After blocking with 5% skim milk for 2 h, befitting primary antibodies include Bax (Proteintech; Type: Rabbit; Cat No.: 50599-2-lg); Bcl-2 (Proteintech; Type: Mouse; Cat No.: 60178-1-lg); GAPDH (Proteintech; Type: Mouse; Cat No.: 60004-1-lg); β-actin (Proteintech; Type: Rabbit; Cat No.: 81115-1-RR); P53 (Cell signaling; Type: Rabbit; Cat No.: #2527) and MDM2 (Cell signaling; Type: Rabbit; Cat No.: #86934) were sealed in Antibody Dilution Buffer, and cocultivated with the PDF membrane at 4 °C for overnight. […]

[10] = test system: p53 and MDM2 expression in K562 cells; assay: Western blotting of p53 and MDM2; assay type: cell-based, human; settings: K562, 48 h
Method: Loss of p53 activity by deletion, mutation, or MDM2 over-expression, is the most common event in the development and progression of cancer. To confirm the ability of 6o to inhibit the p53 and MDM2 interaction in K562, the expression levels of these two proteins were evaluated by Western blotting assay after 48 h of 6o treatment. […] In summary, 6o could change the expression of p53 and MDM2, disrupting the balance of intracellular p53 protein levels, and eventually inducing apoptosis of K562.
K562 cells were treated with compound 6o for 48 h, then, lysed in 1×RIPA lysis buffer (Solarbio) with proteinase (Solarbio) and phosphatase inhibitors (Solarbio) for 15 min on ice (proteinase: phosphatase inhibitors: 1 × RIPA lysis buffer = 1:1:100), scraped off from the plate and prepared cell lysates. These lysates were centrifuged at 1.2 × 10^4 rpm at 4 °C for 15 min to collect the supernatants and the protein concentration of each sample was quantified by the BCA protein assay kit (Beyotime, Shanghai, China). Protein was separated by SDS-PAGE and then transferred onto the PVDF membrane. […]

[11] = Table 1, 48 h, read-out: IC50 ± SD, K562
[12] = Table 3, read-out: IC50 ± SD, K562
[13] = Table 1, read-out: IC50 ± SD, PC-3
[14] = Table 2, read-out: IC50 ± SD, PC-3
[15] = HepG2, 48 h, Table 1, 48 h, read-out: IC50 ± SD, Hep-G2
[16] = HepG2, 48 h, Table 2, 48 h, read-out: IC50 ± SD, Hep-G2
[17] = HepG2, Table 3, read-out: IC50 ± SD, Hep-G2
[18] = Table 2, 48 h, read-out: IC50 ± SD, K562

| Compound | IC50 [1, 11] | IC50 [1, 12] | IC50 ([2]; Table 1, 48 h) | IC50 [3, 13] | IC50 [3, 14] | IC50 [4, 15] | IC50 [4, 16] | IC50 [4, 17] | IC50 at 48 h [5] | Selectivity index (SI) for Hep-G2 cells [6] | Selectivity index (SI) for K562 cells [6] | IC50 [1, 18] | IC50 ([2]; Table 2, 48 h) | melting point | other results |
| --- | --- | --- | --- | --- | --- | --- | --- | --- | --- | --- | --- | --- | --- | --- | --- |
| O=c1[nH]cc(F)c(=O)[nH]1 [5-Fu, 5-fluorouracil, reference compound] | 8.53 ± 2.27 µM | 8.53 ± 2.27 µM | 8.37 ± 0.79 µM | 9.17 ± 3.93 µM | 3.47 ± 0.21 µM | 9.78 ± 1.58 µM | 2.25 ± 0.46 µM | 9.78 ± 1.58 µM | 1.16 ± 0.11 µM | 0.12 | 0.14 | – | – | – | increase of the proportion of the G0/G1 phase after drug treatment ([7]; K562, positive control): 10% |
| O=C(CN1CCN(c2ccncc2)CC1)Nc1n[nH]c2ccc(-c3ccc(Cl)c(Cl)c3)cc12 [6u] | – | – | – | – | 27.7 ± 16.9 µM | – | 20 ± 3.04 µM | – | – | – | – | > 50 µM | 17.6 ± 4.11 µM | 195 to 197 °C | – |
| O=C(CSc1ccc(Br)cc1)Nc1n[nH]c2ccc(-c3cc(F)cc(F)c3)cc12 [compound 5k] | 8.86 ± 0.66 µM | – | 7.78 ± 0.18 µM | 12.6 ± 2.17 µM | – | 3.32 ± 0.43 µM | – | 3.32 ± 0.43 µM | 12.2 ± 2.85 µM | 3.67 | – | – | – | 204 to 205 °C | – |
| O=C(CN1CCN(c2ccc(C(F)(F)F)cc2)CC1)Nc1n[nH]c2ccc(-c3ccc(Cl)c(F)c3)cc12 [compound 6o] | – | 5.15 ± 0.55 µM | – | – | 8.34 ± 1.55 µM | – | 7.37 ± 0.24 µM | – | 33.2 ± 3.83 µM | – | 6.45 | 5.15 ± 0.55 µM | 6.73 ± 1.03 µM | 183 to 185 °C | total apoptosis rate (early and late apoptosis) ([8]; K562, 10 μM): 9.64%; total apoptosis rate (early and late apoptosis) ([8]; K562, 12 μM): 16.59%; total apoptosis rate (early and late apoptosis) ([8]; K562, 14 μM): 37.72%; G0/G1 population ([7]; K562, 10 μM): 31.8%; G0/G1 population ([7]; K562, 12 μM): 36.4%; G0/G1 population ([7]; K562, 14 μM): 41.1%; proportion of S phase cells ([7]; K562, 10, 12 and 14 μM, vs negative control): decreased significantly; expression of Bax (pro-apoptotic protein) [9]: increase; expression of Bcl-2 (apoptosis-inhibiting protein) [9]: decreased; also recorded: reduce; expression level of p53 protein [10]: up-regulate; expression of MDM2 protein [10]: reduce |
